Data taken from patent publication US20110098296A1, “Thiazole And Oxazole Kinase Inhibitors” (priority 2007, published 2011).

Tests used:
[1] = molecular target: T1, EGFR (Homo sapiens, UniProt P00533); test: EGFR substrate phosphorylation assay (HTRF); format: biochemical; settings: Method (A): Enzyme Mix incubated with compound at 20° C. for 1 hr, reaction started by adding Substrate Mix
T1 construct: made in house; host or cells: baculovirus expression system
Method in brief: (§1)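 Baculovirus-expressed kinase (0.8 nM EGFR or 10 nM ErbB2 in enzyme mix) with Peptide C 0.8 μM and ATP 20 μM (substrate-mix levels), MOPS pH 7.5, MnCl2; 90 min, 20 °C, HTRF anti-phosphotyrosine. Method A adds 1 h enzyme–compound preincubation; B none. pIC50, final compound 0.00027–47.6 μM.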

[2] = molecular target: T2, ErbB2 (Homo sapiens, UniProt P04626); test: ErbB-2 substrate phosphorylation assay (HTRF); format: biochemical; settings: Method (A): Enzyme Mix incubated with compound at 20° C. for 1 hr, reaction started by adding Substrate Mix
T2 construct: made in house; host or cells: baculovirus expression system
Method in brief: as §1

[3] = molecular target: B-Raf (Homo sapiens, UniProt P15056); test: B-Raf Accelerated MEK ATPase assay (BRAMA); format: biochemical; settings: Method (A): BRAMA, kinetic read
Protocol: Compounds of the present invention were tested for B-Raf protein serine kinase inhibitory activity in a B-Raf Accelerated MEK ATPase assay (BRAMA). The BRAMA assay is a high sensitivity assay which measures an intrinsic MEK-mediated ATP hydrolysis uncoupled from downstream ERK phosphorylation by coupling the formation of ADP to NADH oxidation through the enzymes pyruvate kinase and lactate dehydrogenase. When ADP production is initiated by addition of catalytic amounts of an activated Raf enzyme and non-phosphorylated MEK, one observes robust ADP production concomitant with Raf-mediated phosphorylation of MEK.
Method A: Specific details of the assay are disclosed in: C. Rominger, M. Schaber, E. May. Assay for B-Raf Activity Based on Intrinsic MEK ATPase Activity. Statutory Invention Registration Ser. No. 11/084,993 (March, 2005). Method B: The method is the same as method A, but includes the following changes: 1) the assay was performed with a final MEK concentration of 150 nM and 2) the assay was read as single end point instead of a kinetic read.

[4] = system: HN5 tumor cells; test: Method B: CellTiter-Glo Growth Inhibition Assay, HN5; format: cell-based; settings: Homo sapiens, 72 h, 3 days
Protocol: (§2) Human breast tumor cells (BT474) were cultured in RPMI, (Invitrogen, 22400) containing 10% fetal bovine serum (FBS). Human head and neck tumor cells (HN5) were cultured in low glucose DMEM (Invitrogen, 12320) containing 10% FBS. Human colon tumor cells (Colo205) were cultured in DMEM (Invitrogen, 10564) containing 10% FBS. Human melanoma cancer cells (SK-MEL-28) were incubated in DMEM (Invitrogen). All cell lines were maintained at 37° C. in a humidified 5% CO2, 95% air incubator. Cells were harvested using trypsin/EDTA, counted using a haemocytometer, and plated in 30 μL of the appropriate media described above, at the following densities, in a half-area, black-walled, 96-well tissue culture plate (Corning 3882): BT474 3,000 cells/well, HN5 500 cells/well, Colo205 3,000 cells/well, and SK-MEL-28 500 cells/well). The next day, compounds were diluted in DMEM containing […] gentamicin, from 10 mM stock solutions in DMSO. 30 μL/well of these dilutions were added to the 30 μL/well of media currently on the cell plates. Medium containing 0.6% DMSO was added to control wells. The final concentration of DMSO in all wells was 0.3%. Cells were incubated at 37° C., 5% CO2 for 3 days. Cell biomass was estimated using CellTiter-Glo® reagent (Promega G7571). Briefly, plates were removed from the incubator and allowed to equilibrate to rt for 30 minutes. 25-60 μL of CellTiter-Glo® reagent were added to each well of the treated cells and plates were shaken on an orbital plate shaker for 2 mins. Plates were incubated without shaking for 30 more mins and read in a luminometer with an integration time of 0.5 seconds per well. Percent inhibition of cell growth was calculated relative to vehicle-treated control wells. Concentration of compound that inhibits 50% of vehicle control cell growth (IC50) was interpolated using nonlinear regression (Levenberg-Marquardt) and the equation, y=V max*(1−(x/(K+x)))+Y2, where “K” was equal to the IC50.

[5] = system: BT474 tumor cells; test: Method B: CellTiter-Glo Growth Inhibition Assay, BT474; format: cell-based; settings: Homo sapiens, BT-474, 72 h, 3 days
Protocol: as §2

[6] = system: Colo205 tumor cells; test: Method B: CellTiter-Glo Growth Inhibition Assay, Colo205; format: cell-based; settings: Homo sapiens, COLO 205, 72 h, 3 days
Protocol: as §2

[7] = system: Colo205 tumor cells; test: Method C: Cell Growth Inhibition Assay (CellTiter-Glo), Colo205; format: cell-based; settings: Homo sapiens, COLO 205, 72 h, 3 days, 4-parameter fit
Method in brief: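 Cells were seeded at 500 per well and dosed the next day with nine serial 1:3 compound dilutions (0.2% DMSO final), then grown 3 days at 37° C, 5% CO2. ATP was measured by CellTiter-Glo luminescence, and IC50 was interpolated by 4-parameter fit of percent inhibition versus DMSO controls.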

[8] = system: SK-MEL-28 tumor cells; test: Method C: Cell Growth Inhibition Assay (CellTiter-Glo), SK-MEL-28; format: cell-based; settings: Homo sapiens, SK-MEL-28, 72 h, 3 days, 4-parameter fit
Method in brief: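 Luminescent ATP signal (CellTiter-Glo, after 30 min room-temperature equilibration) served as a surrogate for cell number after a 3-day compound exposure at 37° C. Cells were plated at 500/well and treated with serially diluted compound at 0.2% DMSO. IC50 values are 4-parameter fits against DMSO-treated wells.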

[9] = system: HN5 tumor cells; test: Method A: Methylene Blue Growth Inhibition Assay, HN5; format: cell-based; settings: Homo sapiens, 72 h, 3 days
Protocol: (§3) Human breast (BT474) and head and neck (HN5) tumor cells were cultured in low glucose DMEM (Life Technologies 12320-032) containing 10% fetal bovine serum (FBS). Human colon tumor cells (Colo205) were cultured in DMEM (Invitrogen, 10564) containing 10% FBS. The SV40 transformed human mammary epithelial cell line HB4a was transfected with either human H-ras cDNA (HB4a r4.2) or the human c-ErbB2 cDNA (HB4a c5.2). The HB4a clones were cultured in RPMI containing 10% FBS, insulin (5 g/mL), hydrocortisone (5 g/mL), supplemented with the selection agent hygromycin B (50 g/mL). All lines were grown in a humidified incubator at 37° C. in 95% air, 5% CO2. Cells were harvested using trypsin/EDTA, counted using a haemocytometer, and plated in 100 μL of the appropriate media, at the following densities, in a 96-well tissue culture plate (Falcon 3075): BT474 10,000 cells/well, HN5 3,000 cells/well. The next day, compounds were diluted in DMEM containing […] gentamicin, at twice the final required concentration, from 10 mM stock solutions in DMSO. 100 μl/well of these dilutions were added to the 100 μL of media currently on the cell plates. Medium containing 0.6% DMSO was added to control wells. Compounds diluted in DMEM were added to all cell lines. The final concentration of DMSO in all wells was 0.3%. Cells were returned to the incubator (37° C., […]) for 3 days. Medium was then removed by aspiration. Cell biomass was estimated by staining cells with 90 μL/well methylene blue (Sigma M9140, 0.5% in 1:1 EtOH:H2O), and incubation at room temperature for at least 30 minutes. Stain was removed, and the plates rinsed by immersion in deionized H2O and air-dried. To release stain from the cells 100 μL of solubilization solution were added (1% N-lauroyl sarcosine, sodium salt, Sigma L5125, in PBS), and plates were shaken gently for about 30 minutes. Optical density at 620 nm was measured on a microplate reader. Percent inhibition of cell growth was calculated relative to vehicle-treated control wells. Concentration of compound that inhibits 50% of control cell growth (IC50) was interpolated using nonlinear regression (Levenberg-Marquardt) and the equation,
(§4) y=Vmax*(1−(x/(K+x)))+Y2, where “K” was equal to the IC50.

[10] = system: BT474 tumor cells; test: Method A: Methylene Blue Growth Inhibition Assay, BT474; format: cell-based; settings: Homo sapiens, BT-474, 72 h, 3 days
Protocol: as §3, §4

[11] = system: Colo205 tumor cells; test: Method A: Methylene Blue Growth Inhibition Assay, Colo205; format: cell-based; settings: Homo sapiens, COLO 205, 72 h, 3 days
Protocol: as §3, §4

T2 sequence (P04626 23-1255): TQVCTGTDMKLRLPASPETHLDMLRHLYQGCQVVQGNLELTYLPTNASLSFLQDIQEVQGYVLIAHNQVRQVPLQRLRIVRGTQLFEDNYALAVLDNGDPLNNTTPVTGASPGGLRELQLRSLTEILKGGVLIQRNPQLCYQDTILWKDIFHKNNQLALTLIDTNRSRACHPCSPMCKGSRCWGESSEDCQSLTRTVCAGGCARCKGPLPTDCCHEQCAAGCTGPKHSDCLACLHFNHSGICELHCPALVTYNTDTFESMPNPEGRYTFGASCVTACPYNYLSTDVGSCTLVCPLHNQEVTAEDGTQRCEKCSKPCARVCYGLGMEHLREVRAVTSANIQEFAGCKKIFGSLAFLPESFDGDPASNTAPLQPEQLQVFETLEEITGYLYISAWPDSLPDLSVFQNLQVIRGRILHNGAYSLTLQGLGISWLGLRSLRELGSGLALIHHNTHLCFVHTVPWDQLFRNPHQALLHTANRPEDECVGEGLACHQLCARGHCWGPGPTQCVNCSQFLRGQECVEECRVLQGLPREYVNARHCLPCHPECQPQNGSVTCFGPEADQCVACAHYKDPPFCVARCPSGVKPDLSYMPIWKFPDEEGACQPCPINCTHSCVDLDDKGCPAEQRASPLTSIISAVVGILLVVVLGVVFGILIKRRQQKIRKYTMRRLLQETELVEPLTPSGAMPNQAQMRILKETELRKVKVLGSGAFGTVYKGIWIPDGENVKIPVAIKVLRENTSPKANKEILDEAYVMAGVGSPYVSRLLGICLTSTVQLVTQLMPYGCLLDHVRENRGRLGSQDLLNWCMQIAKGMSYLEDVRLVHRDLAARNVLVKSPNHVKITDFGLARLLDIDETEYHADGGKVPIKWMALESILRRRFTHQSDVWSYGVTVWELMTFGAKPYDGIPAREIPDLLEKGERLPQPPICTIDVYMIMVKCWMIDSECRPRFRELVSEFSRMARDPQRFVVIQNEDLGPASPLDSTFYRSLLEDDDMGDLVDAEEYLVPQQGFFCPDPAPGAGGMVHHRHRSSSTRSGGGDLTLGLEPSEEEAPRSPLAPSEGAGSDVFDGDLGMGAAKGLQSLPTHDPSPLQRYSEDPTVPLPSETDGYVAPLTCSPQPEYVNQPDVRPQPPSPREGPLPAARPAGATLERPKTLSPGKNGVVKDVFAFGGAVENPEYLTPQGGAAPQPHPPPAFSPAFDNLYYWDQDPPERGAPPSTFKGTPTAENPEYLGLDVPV
T1 sequence (P00533 25-1210): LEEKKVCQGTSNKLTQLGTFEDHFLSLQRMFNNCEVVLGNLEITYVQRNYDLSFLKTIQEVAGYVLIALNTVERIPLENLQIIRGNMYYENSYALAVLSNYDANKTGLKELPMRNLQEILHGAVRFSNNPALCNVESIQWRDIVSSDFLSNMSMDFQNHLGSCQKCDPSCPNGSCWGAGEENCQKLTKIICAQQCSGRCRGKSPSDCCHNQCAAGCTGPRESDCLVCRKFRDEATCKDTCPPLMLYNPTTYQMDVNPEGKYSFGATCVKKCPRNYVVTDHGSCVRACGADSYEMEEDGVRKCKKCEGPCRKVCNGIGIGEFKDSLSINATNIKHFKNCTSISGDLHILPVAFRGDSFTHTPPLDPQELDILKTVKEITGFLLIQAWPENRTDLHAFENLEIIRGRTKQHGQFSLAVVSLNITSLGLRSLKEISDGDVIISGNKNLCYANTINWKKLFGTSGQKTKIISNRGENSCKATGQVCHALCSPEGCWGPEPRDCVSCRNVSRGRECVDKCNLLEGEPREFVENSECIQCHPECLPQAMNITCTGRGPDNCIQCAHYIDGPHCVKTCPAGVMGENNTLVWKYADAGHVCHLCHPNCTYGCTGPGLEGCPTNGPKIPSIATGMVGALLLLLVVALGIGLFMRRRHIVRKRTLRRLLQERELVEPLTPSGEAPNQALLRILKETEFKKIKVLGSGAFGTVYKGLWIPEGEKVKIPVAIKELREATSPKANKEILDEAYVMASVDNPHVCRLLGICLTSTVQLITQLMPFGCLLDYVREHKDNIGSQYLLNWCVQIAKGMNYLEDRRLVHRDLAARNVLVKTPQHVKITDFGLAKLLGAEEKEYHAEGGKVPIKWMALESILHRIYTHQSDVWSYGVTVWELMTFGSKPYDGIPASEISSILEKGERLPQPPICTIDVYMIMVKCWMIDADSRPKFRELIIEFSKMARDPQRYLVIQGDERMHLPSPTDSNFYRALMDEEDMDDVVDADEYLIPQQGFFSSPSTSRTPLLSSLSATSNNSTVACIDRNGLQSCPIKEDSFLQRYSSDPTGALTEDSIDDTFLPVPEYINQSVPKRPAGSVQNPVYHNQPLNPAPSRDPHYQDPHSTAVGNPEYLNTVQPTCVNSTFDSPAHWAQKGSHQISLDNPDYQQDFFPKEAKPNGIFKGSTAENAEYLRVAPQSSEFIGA
B-Raf, sequence (P15056 whole entry): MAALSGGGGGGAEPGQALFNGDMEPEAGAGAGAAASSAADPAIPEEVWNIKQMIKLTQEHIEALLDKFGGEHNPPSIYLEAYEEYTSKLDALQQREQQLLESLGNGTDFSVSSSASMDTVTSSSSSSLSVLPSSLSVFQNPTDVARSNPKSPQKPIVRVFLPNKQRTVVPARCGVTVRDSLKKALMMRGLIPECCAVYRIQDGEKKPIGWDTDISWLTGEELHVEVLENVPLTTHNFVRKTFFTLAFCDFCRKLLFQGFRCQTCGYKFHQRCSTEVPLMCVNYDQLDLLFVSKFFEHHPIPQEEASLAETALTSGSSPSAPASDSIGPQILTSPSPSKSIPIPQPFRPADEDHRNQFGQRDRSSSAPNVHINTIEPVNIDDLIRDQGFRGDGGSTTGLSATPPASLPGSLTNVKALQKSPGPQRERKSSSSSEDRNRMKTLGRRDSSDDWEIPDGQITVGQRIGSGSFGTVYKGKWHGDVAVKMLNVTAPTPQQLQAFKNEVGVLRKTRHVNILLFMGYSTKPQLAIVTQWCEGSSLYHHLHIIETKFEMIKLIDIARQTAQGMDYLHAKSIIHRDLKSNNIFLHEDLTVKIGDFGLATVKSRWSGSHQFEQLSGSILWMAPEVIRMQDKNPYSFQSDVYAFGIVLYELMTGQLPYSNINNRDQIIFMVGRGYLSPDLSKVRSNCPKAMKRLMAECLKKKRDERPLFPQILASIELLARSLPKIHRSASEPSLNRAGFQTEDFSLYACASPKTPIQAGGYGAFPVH

Row | IC50 [1] | IC50 [2] | IC50 [3] | IC50 [4] | IC50 [5] | IC50 [6] | IC50 [7] | IC50 [8] | IC50 [9] | IC50 [10] | IC50 [11] | SMILES
1 | < 100 nM | 100 to 1000 nM | > 1000 nM | 100 to 1000 nM | 100 to 1000 nM | > 1000 nM |  |  |  |  |  | Cc1cc(-c2sc(N)nc2-c2cccc(NC(=O)c3c(F)cccc3F)c2)nc(Nc2cccc(OCCN(C)C)c2)n1 [Example 49, N-[3-(2-Amino-5-{2-[(3-{[2-(dimethylamino)ethyl]oxy}phenyl)amino]-6-methyl-4-pyrimidinyl}-1,3-thiazol-4-yl)phenyl]-2,6-difluorobenzamide]
2 | < 100 nM | < 100 nM | 100 to 1000 nM |  |  |  | > 1000 nM | > 1000 nM |  |  |  | Cc1cc(Nc2nccc(-c3sc(N(C)C)nc3-c3cccc(NC(=O)c4c(F)cccc4F)c3)n2)ccc1CC1CCNCC1 [Example 42, N-{3-[2-(Dimethylamino)-5-(2-{[3-methyl-4-(4-piperidinylmethyl)phenyl]amino}-4-pyrimidinyl)-1,3-thiazol-4-yl]phenyl}-2,6-difluorobenzamide]
3 | < 100 nM | < 100 nM | > 1000 nM |  |  |  |  |  | 100 to 1000 nM | 100 to 1000 nM | > 1000 nM | Nc1nc(-c2cccc(OCc3ccccc3)c2)c(-c2ccnc(Nc3cccc(-c4cnco4)c3)n2)s1 [Example 69, 4-(2-Amino-4-{3-[(phenylmethyl)oxy]phenyl}-1,3-thiazol-5-yl)-N-[3-(1,3-oxazol-5-yl)phenyl]-2-pyrimidinamine]
4 | < 100 nM | < 100 nM |  |  |  |  |  |  | < 100 nM | < 100 nM | 100 to 1000 nM | COCCOc1ccc(Nc2nccc(-c3sc(N)nc3-c3cccc(NC(=O)c4cc(F)ccc4F)c3)n2)cc1F [Example 58, N-[3-(2-Amino-5-{2-[(3-fluoro-4-{[2-(methyloxy)ethy]oxy}phenyl)amino]-4-pyrimidinyl}-1,3-thiazol-4-yl)phenyl]-2,5-difluorobenzamide]
5 | < 100 nM | < 100 nM |  |  |  |  |  |  | < 100 nM | < 100 nM | < 100 nM | Nc1nc(-c2cccc(NC(=O)c3c(F)cccc3F)c2)c(-c2ccnc(Nc3cccc(-c4cnco4)c3)n2)s1 [Example 14, N-{3-[2-Amino-5-(2-{[3-(1,3-oxazol-5-yl)phenyl]amino}-4-pyrimidinyl)-1,3-thiazol-4-yl]phenyl}-2,6-difluorobenzamide]
6 | < 100 nM | < 100 nM |  |  |  |  |  |  | < 100 nM | < 100 nM | 100 to 1000 nM | COCCOc1ccc(Nc2nccc(-c3sc(N)nc3-c3cccc(NC(=O)c4c(F)cccc4F)c3)n2)cc1F [Example 3]
7 | < 100 nM | < 100 nM |  |  |  |  |  |  | < 100 nM | 100 to 1000 nM | > 1000 nM | COc1ccc(Nc2nccc(-c3sc(N)nc3-c3cccc(NC(=O)c4cc(F)ccc4F)c3)n2)cc1F [Example 50, N-{3-[2-Amino-5-(2-{[3-fluoro-4-(methyloxy)phenyl]amino}-4-pyrimidinyl)-1,3-thiazol-4-yl]phenyl}-2,5-difluorobenzamide]
8 | < 100 nM | < 100 nM |  |  |  |  |  |  | 100 to 1000 nM | < 100 nM | 100 to 1000 nM | COCCNc1nc(-c2cccc(NC(=O)c3cc(F)ccc3F)c2)c(-c2ccnc(Nc3ccc(OC)c(F)c3)n2)s1 [Example 52, 2,5-Difluoro-N-[3-(5-(2-{[3-fluoro-4-(methyloxy)phenyl]amino}-4-pyrimidinyl)-2-{[2-(methyloxy)ethyl]amino}-1,3-thiazol-4-yl)phenyl]benzamide]
9 | < 100 nM | < 100 nM |  |  |  |  |  |  | < 100 nM | < 100 nM | > 1000 nM | Nc1nc(-c2cccc(NC(=O)c3cc(F)ccc3F)c2)c(-c2ccnc(Nc3cccc(-c4cnco4)c3)n2)s1 [Example 54]
10 | < 100 nM | < 100 nM |  |  |  |  |  |  | < 100 nM | < 100 nM | 100 to 1000 nM | O=C(Nc1cccc(-c2nc(NCCN3CCOCC3)sc2-c2ccnc(Nc3ccc4c(c3)CNCC4)n2)c1)c1c(F)cccc1F [Example 1, 2,6-Difluoro-N-(3-{2-{[2-(4-morpholinyl)ethyl]amino}-5-[2-(1,2,3,4-tetrahydro-7-isoquinolinylamino)-4-pyrimidinyl]-1,3-thiazol-4-yl}phenyl)benzamide]
11 | < 100 nM | < 100 nM | > 1000 nM |  |  |  |  |  | < 100 nM | < 100 nM | 100 to 1000 nM | COCCOc1ccc(Nc2nccc(-c3sc(N)nc3-c3cccc(NC(=O)c4cccn4C)c3)n2)cc1F [Example 66, N-[3-(2-Amino-5-{2-[(3-fluoro-4-{[2-(methyloxy)ethyl]oxy}phenyl)amino]-4-pyrimidinyl}-1,3-thiazol-4-yl)phenyl]-1-methyl-1H-pyrrole-2-carboxamide]
